In patent publication EP4748841A1, “BICYCLO[5,6] IMIDAZOLE PYRIMIDONE DERIVATIVE AND PREPARATION METHOD THEREFOR AND USE THEREOF” (Shujing Biopharma Co., Ltd, priority 2023, dated 2025):

Molecular target: T1, Lp-PLA2 (Homo sapiens, UniProt Q13093)
T1 construct: from tissue; host or cells: pooled (mixed) human plasma
T1 sequence (Q13093 22-441): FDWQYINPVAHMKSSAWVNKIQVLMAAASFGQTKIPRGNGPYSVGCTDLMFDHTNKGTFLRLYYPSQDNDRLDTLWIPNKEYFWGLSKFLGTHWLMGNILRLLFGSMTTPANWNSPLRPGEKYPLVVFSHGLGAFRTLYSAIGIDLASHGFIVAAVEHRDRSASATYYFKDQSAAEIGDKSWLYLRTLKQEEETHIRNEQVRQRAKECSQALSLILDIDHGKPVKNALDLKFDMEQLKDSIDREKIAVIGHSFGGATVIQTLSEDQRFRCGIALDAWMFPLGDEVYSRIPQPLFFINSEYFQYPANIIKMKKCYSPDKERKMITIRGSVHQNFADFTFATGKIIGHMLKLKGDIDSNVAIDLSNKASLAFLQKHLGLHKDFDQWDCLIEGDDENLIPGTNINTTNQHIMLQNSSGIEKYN
Experiment: Inhibitory activity against Lp-PLA2 in human plasma (Thio-PAF assay)
Assay type: biochemical
Conditions: 2-thio-PAF substrate, 30 min pre-incubation
Text: The literature reports that 2-Thio-PAF, commercially available from Cayman Chemical, is a substrate for PAF hydrolase (PAF-AH). After its cleavage by PAF-AH, the free thiol released at the sn-2 position can react with 7-diethylamino-3-(4'-maleimidophenyl)-4-methylcoumarin (CPM), resulting in increased fluorescence. Thus, Lp-PLA2 inhibitors can prevent this cleavage, and no increase in fluorescence is observed. In this experiment, the human plasma assay employed the same thioester analog of PAF as described in the recombinant human Lp-PLA2 assay described above.
• (1) The Thio-PAF assay was performed as a quenched 75 µL assay. A compound source plate was prepared by preparing 1:4 (v/v) serial diluents of the compounds in pure DMSO in a 96-well microplate. • (2) 1 µL of each test compound from the compound source plate was transferred into a 96-well microplate containing 40 µL of pre-thawed mixed human plasma by a Rainin multichannel pipette, and the plasma was thawed at room temperature and centrifuged at 2000 rpm for 10 min. The plate was shaken on a microplate shaker for 2 min for uniform mixing. • (3) After 30 min of pre-incubation at room temperature, 10 µL of a substrate solution was added sequentially to the 96-well microplate described above by a Rainin multichannel pipette. The substrate solution contained 2.5 mM 2-thio-PAF (from an ethanol mother liquor), 32 µM CPM (from a DMSO mother liquor), and 3.2 mM N-ethylmaleimide (freshly prepared in DMSO for each experiment) in assay buffer (pH 7.4) consisting of 50 mM HEPES, 150 mM NaCl, and 1 mM CHAPS. After the addition was completed, the plate was immediately shaken for 2 min, and the reaction time for the substrate was 4 min in total. After the reaction was completed, the reaction was quenched with 25 µL of an aqueous solution of 5% trifluoroacetic acid. The plate was centrifuged at 1000 rpm for 1 min. • (4) The FLINT signal (FLINT380/480) was read using a microplate reader. • (5) IC50 data, curve fitting, and QC analyses were performed using GraphPad Prism 8.0 and Excel.

`O=c1nc(OCc2ccc(Oc3ccc(C(F)(F)F)nc3)c(F)c2)cc2n1CC1CCN21` (stereo not shown) [Example 1] and `O=c1nc(OCc2ccc(Oc3ccnc(C(F)(F)F)c3)c(F)c2)cc2n1CC1CCN21` (stereo not shown) [Example 23] are within 1.5-fold of each other in IC50: 3.9 nM for the first, 4.3 nM for the second.

Going from `O=c1nc(OCc2ccc(F)cc2)cc2n1CC1CCN21` (stereo not shown) [Example 7, 3-((4-Fluorobenzyl)oxy)-6,7,7a,8-tetrahydro-1H-azeto[1',2':3,4]imidazo[1,2-c]pyrimidin-1-one] to `Cc1ccc(COc2cc3n(c(=O)n2)CC2CCN32)cc1` (stereo not shown) [Example 8, 3-((4-Methylbenzyl)oxy)-6,7,7a,8-tetrahydro-1H-azeto[1',2':3,4]imidazo[1,2-c]pyrimidin-1-one], the IC50 rises from 68.7 nM to 2430 nM (35-fold).

`O=c1nc(OCc2ccc(Oc3ccccc3)cc2)cc2n1CC1CCN21` (stereo not shown) [Example 12, 3-((4-Phenoxybenzyl)oxy)-6,7,7a,8-tetrahydro-1H-azeto[1',2':3,4]imidazo[1,2-c]pyrimidin-1-one] and `O=c1nc(OCc2ccc(Oc3ccccc3)nc2)cc2n1CC1CCN21` (stereo not shown) [Example 16, 3-((6-Phenoxypyridin-3-yl)methoxy)-6,7,7a,8-tetrahydro-1H-azeto[1',2':3,4]imidazo[1,2-c]pyrimidin-1-one] are within 1.5-fold of each other in IC50: 2090 nM for the first, 2740 nM for the second.

First: N#Cc1cc(COc2cc3n(c(=O)n2)CC2CCN32)ccc1Oc1ccc(C(F)(F)F)cn1 (stereo not shown) [Example 21, 5-(((1-Oxo-6,7,7a,8-tetrahydro-1H-azeto[1',2':3,4]imidazo[1,2-c]pyrimidin-3-yl)oxy)methyl)-2-((5-(trifluoromethyl)pyridin-2-yl)oxy)benzonitrile]
Second: N#Cc1cc(COc2cc3n(c(=O)n2)CC2CCN32)ccc1Oc1cccc(C(F)(F)F)c1 (stereo not shown) [Example 22, 5-(((1-Oxo-6,7,7a,8-tetrahydro-1H-azeto[1',2':3,4]imidazo[1,2-c]pyrimidin-3-yl)oxy)methyl)-2-(3-(trifluoromethyl)phenoxy)benzonitrile]
The IC50 of the first is 43-fold higher: 200 nM for the first, 4.6 nM for the second.

Going from `O=c1nc(OCc2ccc(Oc3ccc(F)c(F)c3)c(F)c2)cc2n1CC1CCN21` (stereo not shown) [Example 24, 3-((4-(3,4-Difluorophenoxy)-3-fluorobenzyl)oxy)-6,7,7a,8-tetrahydro-1H-azeto[1',2':3,4]imidazo[1,2-c]pyrimidin-1-one] to `N#Cc1cc(Oc2ccc(COc3cc4n(c(=O)n3)CC3CCN43)cc2F)ccc1Cl` (stereo not shown) [Example 53, 2-Chloro-5-(2-fluoro-4-(((1-oxo-6,7,7a,8-tetrahydro-1H-azeto[1',2':3,4]imidazo[1,2-c]pyrimidin-3-yl)oxy)methyl)phenoxy)benzonitrile], the IC50 rises from 12.7 nM to 107 nM (8.4-fold).

Compared with `N#Cc1ccc(COc2cc3n(c(=O)n2)CC2CCN32)cc1` (stereo not shown) [Example 28, 3-((4-Cyanobenzyl)oxy)-6,7,7a,8-tetrahydro-1H-azeto[1',2':3,4]imidazo[1,2-c]pyrimidin-1-one], `O=c1nc(OCc2ccc(F)c(F)c2)cc2n1CC1CCN21` (stereo not shown) [Example 54, 3-((3,4-Difluorobenzyl)oxy)-6,7,7a,8-tetrahydro-1H-azeto[1',2':3,4]imidazo[1,2-c]pyrimidin-1-one] is 29-fold lower in IC50: 892 nM for the first, 30.3 nM for the second.

Compared with `O=c1nc(OCc2cc(F)c(Oc3ccnc(C(F)(F)F)c3)c(F)c2)cc2n1C[C@@H]1CCN21` [Example 34-S], `O=c1nc(OCc2cc(F)c(Oc3ccnc(C(F)(F)F)c3)c(F)c2)cc2n1CC1CCN21` (stereo not shown) [Example 34] is 10-fold lower in IC50: 52.3 nM for the first, 5.2 nM for the second.

First: Cc1ccc(Oc2c(F)cc(COc3cc4n(c(=O)n3)C[C@H]3CCN43)cc2F)cn1 [Example 36-R]
Second: Cc1ccc(Oc2c(F)cc(COc3cc4n(c(=O)n3)C[C@@H]3CCN43)cc2F)cn1 [Example 36-S]
The IC50 of the first is 6.1-fold lower: 15.9 nM for the first, 96.4 nM for the second. The first is the more potent here.

`Cc1ccc(Oc2c(F)cc(COc3cc4n(c(=O)n3)CC3CCN43)cc2F)cn1` (stereo not shown) [Example 36] and `Cc1ncc(Oc2c(F)cc(COc3cc4n(c(=O)n3)CC3CCN43)cc2F)cn1` (stereo not shown) [Example 44] are within 1.5-fold of each other in IC50: 35.8 nM for the first, 25.6 nM for the second.

First: O=c1nc(OCc2cnc(Oc3ccc(Cl)c(C(F)(F)F)c3)c(F)c2)cc2n1CC1CCN21 (stereo not shown) [Example 38, 3-((6-(4-Chloro-3-(trifluoromethyl)phenoxy)-5-fluoropyridin-3-yl)methoxy)-6,7,7a,8-tetrahydro-1H-azeto[1',2':3,4]imidazo[1,2-c]pyrimidin-1-one]
Second: O=c1nc(OCc2ccc(Oc3ccc(F)c(C(F)(F)F)c3)nc2)cc2n1CC1CCN21 (stereo not shown) [Example 41, 3-((6-(4-Fluoro-3-(trifluoromethyl)phenoxy)pyridin-3-yl)methoxy)-6,7,7a,8-tetrahydro-1H-azeto[1',2':3,4]imidazo[1,2-c]pyrimidin-1-one]
The IC50 of the first is 5.2-fold lower: 56.3 nM for the first, 292 nM for the second.

Going from `N#Cc1cc(COc2cc3n(c(=O)n2)CC2CCN32)ccc1Oc1ccc(Cl)c(C(F)(F)F)c1` (stereo not shown) [Example 39, 2-(4-Chloro-3-(trifluoromethyl)phenoxy)-5-(((1-oxo-6,7,7a,8-tetrahydro-1H-azeto[1',2':3,4]imidazo[1,2-c]pyrimidin-3-yl)oxy)methyl)benzonitrile] to `O=c1nc(OCc2ccc(Oc3ccc(Cl)c(C(F)(F)F)c3)cc2)cc2n1CC1CCN21` (stereo not shown) [Example 50, 3-((4-(4-Chloro-3-(trifluoromethyl)phenoxy)benzyl)oxy)-6,7,7a,8-tetrahydro-1H-azeto[1',2':3,4]imidazo[1,2-c]pyrimidin-1-one], the IC50 rises from 3.9 nM to 12.6 nM (3.2-fold).

Going from `Cn1cc(Oc2c(F)cc(COc3cc4n(c(=O)n3)CC3CCN43)cc2F)cn1` (stereo not shown) [Example 45] to `O=c1nc(OCc2cc(F)c(Oc3ccc(C(F)(F)F)nc3)c(F)c2)cc2n1CC1CCN21` (stereo not shown) [Example 52], the IC50 falls from 203 nM to 4.3 nM (47-fold).

`O=c1nc(OCc2ccc(Oc3cnc(C(F)(F)F)nc3)c(F)c2)cc2n1CC1CCN21` (stereo not shown) [Example 51] showed an IC50 of 21.2 nM.
